Results published in publication PMC2955773 (ACS chemical biology, 2010).
Read-outs that look alike come from different tables or passages of the source. Values belong to the compound of their own block, whether it stands above or below them.

Key:
Nox1 [1] = target: T1, Nox1 (Homo sapiens, UniProt Q9Y5S8); assay: Luminol-based chemiluminescence; type: cell-based; conditions: for ability to block Nox1-dependent ROS generation: HT29 cells, luminol-based CL assay
T1 sequence (Q9Y5S8 1-564): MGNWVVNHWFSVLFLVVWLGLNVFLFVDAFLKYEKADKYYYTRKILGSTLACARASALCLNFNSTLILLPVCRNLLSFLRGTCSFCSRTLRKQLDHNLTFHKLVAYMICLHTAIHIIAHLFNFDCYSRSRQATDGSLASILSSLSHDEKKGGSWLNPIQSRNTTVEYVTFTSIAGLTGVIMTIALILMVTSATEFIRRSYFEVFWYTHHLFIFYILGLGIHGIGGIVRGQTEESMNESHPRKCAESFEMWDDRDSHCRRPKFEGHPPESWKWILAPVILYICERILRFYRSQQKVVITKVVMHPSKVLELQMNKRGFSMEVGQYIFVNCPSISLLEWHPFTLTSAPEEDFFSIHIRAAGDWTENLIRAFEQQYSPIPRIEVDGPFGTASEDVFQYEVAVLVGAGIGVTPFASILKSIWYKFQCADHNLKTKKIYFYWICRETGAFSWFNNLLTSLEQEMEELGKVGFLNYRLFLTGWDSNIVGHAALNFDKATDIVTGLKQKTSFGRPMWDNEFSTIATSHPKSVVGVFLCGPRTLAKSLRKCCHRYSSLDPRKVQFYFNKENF
T1 sequence (P13498 2-195 partner limits assumed): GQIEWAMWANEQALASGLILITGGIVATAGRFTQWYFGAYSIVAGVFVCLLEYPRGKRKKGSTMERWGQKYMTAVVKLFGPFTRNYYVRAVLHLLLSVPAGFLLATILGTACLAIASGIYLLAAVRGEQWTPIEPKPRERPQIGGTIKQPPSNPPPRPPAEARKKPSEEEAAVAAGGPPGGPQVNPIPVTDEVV

xanthine oxidase (XO) = xanthine oxidase (XO) (Bos taurus, UniProt P80457); assay: Xanthine oxidase specificity assay; type: biochemical
ROS production = ROS production measured by carboxy-H2-DCFDA staining; type: cell-based; conditions: second method of ROS detection
[2] = test system: mitochondrial ROS generation in DLD1; assay: Mitochondrial ROS generation by MitoSox dye; type: cell-based, human; conditions: compared to DMSO
Rac1 = Rac1 (Homo sapiens, UniProt P63000); assay: Rac loading assay; type: biochemical; conditions: recombinant Rac1, compared with Mg2+ positive control
[3] = target: serotonin 5-HT2B receptor (Homo sapiens, UniProt P41595); assay: Competitive binding assay; parameters: species or system human or rodent
[4] = target: T2, serotonin 5-HT2C receptor (Homo sapiens, UniProt P28335); assay: Competitive binding assay; parameters: species or system human or rodent
T2 sequence (P28335 33-458): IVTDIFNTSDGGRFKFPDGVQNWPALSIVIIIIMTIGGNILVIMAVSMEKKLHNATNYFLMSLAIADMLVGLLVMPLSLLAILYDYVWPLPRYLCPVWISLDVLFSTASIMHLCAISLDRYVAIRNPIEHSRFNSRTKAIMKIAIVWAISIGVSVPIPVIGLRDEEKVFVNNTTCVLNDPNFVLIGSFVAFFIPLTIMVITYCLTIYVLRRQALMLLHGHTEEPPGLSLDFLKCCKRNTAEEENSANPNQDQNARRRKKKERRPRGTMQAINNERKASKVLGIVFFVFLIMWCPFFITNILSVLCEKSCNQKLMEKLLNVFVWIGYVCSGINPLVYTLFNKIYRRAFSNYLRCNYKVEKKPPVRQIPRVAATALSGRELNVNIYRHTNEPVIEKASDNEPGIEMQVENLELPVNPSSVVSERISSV

[5] = target: T3, adrenergic alpha2C receptor (Homo sapiens, UniProt P18825); assay: Competitive binding assay; parameters: species or system human or rodent
T3 sequence (P18825 1-462): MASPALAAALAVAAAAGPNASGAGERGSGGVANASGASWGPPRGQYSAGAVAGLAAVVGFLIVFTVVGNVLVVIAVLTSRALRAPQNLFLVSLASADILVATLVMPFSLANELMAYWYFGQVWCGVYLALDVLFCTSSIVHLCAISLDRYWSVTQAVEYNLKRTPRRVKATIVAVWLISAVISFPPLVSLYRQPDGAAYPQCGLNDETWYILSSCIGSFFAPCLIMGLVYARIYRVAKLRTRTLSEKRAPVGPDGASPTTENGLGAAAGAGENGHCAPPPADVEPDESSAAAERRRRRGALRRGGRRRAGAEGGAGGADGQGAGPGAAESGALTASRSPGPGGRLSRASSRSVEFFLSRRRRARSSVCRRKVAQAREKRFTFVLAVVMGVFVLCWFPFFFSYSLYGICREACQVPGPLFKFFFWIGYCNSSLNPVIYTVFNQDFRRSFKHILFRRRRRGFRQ

[6] = test system: G-protein coupled receptors (GPCRs), channels and transporters expressed in the CNS; assay: Competitive binding to a large battery of CNS receptors; parameters: species or system human or rodent
DLD1 cells [7] = assay: SrcYF-induced invadopodia formation; type: cell-based, human; conditions: SrcYF-transfected DLD1 cells, treated 1hr; ML171 10 μM
DLD1 cells [8] = assay: ECM degradation assay; type: cell-based, human; conditions: SrcYF-transfected DLD1 cells, 10 μM, 1.5hrs
Nox1 [9] = target: T1, Nox1; assay: HEK293-Nox1 reconstituted cell system, ROS generation by CL assay; conditions: HEK293-Nox1 reconstituted cell system treated with ML171
Nox2 [10] = target: T4, Nox2 (Homo sapiens, UniProt P04839); assay: Nox2 cell-free system; type: biochemical; conditions: 10 μM
T4 sequence (P04839 2-570 limits assumed): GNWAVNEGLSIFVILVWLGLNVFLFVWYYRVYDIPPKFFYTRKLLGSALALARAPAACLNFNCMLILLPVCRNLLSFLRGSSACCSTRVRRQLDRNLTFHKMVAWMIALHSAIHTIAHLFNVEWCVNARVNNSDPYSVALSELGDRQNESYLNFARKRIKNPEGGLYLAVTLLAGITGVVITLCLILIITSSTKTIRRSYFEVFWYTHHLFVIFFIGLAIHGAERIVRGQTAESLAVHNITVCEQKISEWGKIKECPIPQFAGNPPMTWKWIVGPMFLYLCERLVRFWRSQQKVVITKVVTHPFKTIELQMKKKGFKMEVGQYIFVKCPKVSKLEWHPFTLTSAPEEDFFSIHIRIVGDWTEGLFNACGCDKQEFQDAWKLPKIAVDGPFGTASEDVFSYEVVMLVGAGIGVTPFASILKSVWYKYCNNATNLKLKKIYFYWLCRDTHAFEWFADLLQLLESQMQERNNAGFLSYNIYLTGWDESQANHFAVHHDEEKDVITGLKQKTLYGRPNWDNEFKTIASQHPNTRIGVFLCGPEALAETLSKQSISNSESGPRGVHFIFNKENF
T4 sequence (P13498 2-195 partner limits assumed): T1 sequence (P13498 2-195 partner limits assumed)

Nox2 [11] = target: T4, Nox2; assay: Superoxide production in fMLP-treated human neutrophils; type: cell-based; conditions: 10 μM
[12] = read-out: Micromolar IC50 HT29 Assay, HT29 cell-based assay, ROS generation, SAR study
[13] = HT29 cell-based assay, ROS generation, SAR study
[14] = secondary concentration-response analysis

serotonin 5-HT2B receptor, sequence (P41595 whole entry): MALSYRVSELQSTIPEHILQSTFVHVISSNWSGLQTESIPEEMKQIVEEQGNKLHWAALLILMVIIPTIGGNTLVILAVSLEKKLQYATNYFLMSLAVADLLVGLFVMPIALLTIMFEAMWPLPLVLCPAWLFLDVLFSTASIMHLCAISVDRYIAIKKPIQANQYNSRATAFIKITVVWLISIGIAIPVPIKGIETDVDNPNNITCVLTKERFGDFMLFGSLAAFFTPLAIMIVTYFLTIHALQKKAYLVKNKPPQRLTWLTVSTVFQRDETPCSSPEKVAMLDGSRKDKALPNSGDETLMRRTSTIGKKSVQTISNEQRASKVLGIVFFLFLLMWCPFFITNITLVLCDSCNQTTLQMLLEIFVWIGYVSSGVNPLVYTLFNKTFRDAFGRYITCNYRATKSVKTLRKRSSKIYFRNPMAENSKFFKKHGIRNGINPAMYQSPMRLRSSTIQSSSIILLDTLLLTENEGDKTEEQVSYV
xanthine oxidase (XO), sequence (P80457 2-1332): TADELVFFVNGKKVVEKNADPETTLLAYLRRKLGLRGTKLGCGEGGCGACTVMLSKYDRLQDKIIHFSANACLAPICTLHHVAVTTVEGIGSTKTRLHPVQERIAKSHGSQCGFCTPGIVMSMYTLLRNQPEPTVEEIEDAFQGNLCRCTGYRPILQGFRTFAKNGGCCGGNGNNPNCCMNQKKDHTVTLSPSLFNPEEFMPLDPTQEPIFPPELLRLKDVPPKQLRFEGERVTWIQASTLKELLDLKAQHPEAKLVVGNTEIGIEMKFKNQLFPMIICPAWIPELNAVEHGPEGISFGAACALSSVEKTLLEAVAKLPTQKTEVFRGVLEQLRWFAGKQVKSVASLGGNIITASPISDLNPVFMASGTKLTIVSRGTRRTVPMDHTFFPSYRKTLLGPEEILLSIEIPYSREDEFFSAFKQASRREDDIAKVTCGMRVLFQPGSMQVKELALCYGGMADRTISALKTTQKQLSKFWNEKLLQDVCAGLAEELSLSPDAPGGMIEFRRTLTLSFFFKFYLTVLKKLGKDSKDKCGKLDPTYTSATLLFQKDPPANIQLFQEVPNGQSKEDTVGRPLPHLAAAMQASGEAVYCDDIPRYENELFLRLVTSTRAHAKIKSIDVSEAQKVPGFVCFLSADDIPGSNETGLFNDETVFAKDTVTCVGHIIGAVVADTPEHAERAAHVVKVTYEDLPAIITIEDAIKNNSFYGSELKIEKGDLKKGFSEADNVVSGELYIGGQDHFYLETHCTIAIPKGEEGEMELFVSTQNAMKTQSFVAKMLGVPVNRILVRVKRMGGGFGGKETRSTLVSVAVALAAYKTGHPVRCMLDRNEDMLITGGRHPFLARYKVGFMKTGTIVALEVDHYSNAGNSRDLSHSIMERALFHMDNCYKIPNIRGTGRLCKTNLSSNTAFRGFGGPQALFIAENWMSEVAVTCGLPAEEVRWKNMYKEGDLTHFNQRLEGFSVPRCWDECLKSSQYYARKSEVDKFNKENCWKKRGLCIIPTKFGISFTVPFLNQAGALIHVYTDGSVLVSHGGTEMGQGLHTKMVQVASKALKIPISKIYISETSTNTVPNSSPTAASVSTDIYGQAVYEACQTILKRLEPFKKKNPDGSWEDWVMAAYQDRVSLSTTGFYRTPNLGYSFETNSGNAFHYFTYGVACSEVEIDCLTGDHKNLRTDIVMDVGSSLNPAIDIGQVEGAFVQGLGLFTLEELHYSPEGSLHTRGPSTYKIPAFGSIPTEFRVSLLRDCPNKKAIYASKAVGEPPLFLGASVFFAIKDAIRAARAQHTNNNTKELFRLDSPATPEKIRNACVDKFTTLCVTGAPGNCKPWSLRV

Compound: CN1CCN(CCCN2c3ccccc3Sc3ccc(C(F)(F)F)cc32)CC1 [trifluperazine, reference compound]
ability to block Nox1-dependent ROS generation (Nox1 [1]): unable to block Nox1-dependent ROS generation

Compound: CN(C)CCCN1c2ccccc2Sc2ccc(C(F)(F)F)cc21 [SR-01000000224-4, Triflupromazine, reference compound]
Micromolar IC50 HT29 Assay (Nox1 [1]; [13]): Inactive (AID 2808)

Compound: OCCN1CCN(CCCN2c3ccccc3Sc3ccc(Cl)cc32)CC1 [perphenazine, reference compound]
ability to block Nox1-dependent ROS generation (Nox1 [1]): unable to block Nox1-dependent ROS generation

Compound: CC(=O)c1ccc2c(c1)Nc1ccccc1S2 [ML171, 2-acetylphenothiazine]
inhibition of XO-dependent ROS generation (xanthine oxidase (XO)): unable to inhibit XO-dependent ROS generation | ROS production by carboxy-H2-DCFDA staining (ROS production): efficiently blocks ROS production | mitochondrial ROS generation [2]: did not decrease mitochondrial ROS generation | block of Rac1 loading with GTP (Rac1): only marginally block Rac1 loading | % of inhibition ([3]; primary binding assay): > 60% | Ki [3, 14]: micromolar range | % of inhibition ([4]; primary binding assay): > 60% | Ki [4, 14]: micromolar range | % of inhibition ([5]; primary binding assay): > 60% | Ki [5, 14]: micromolar range | binding to receptors of the battery [6]: did not significantly bind most of the receptors tested | invadopodia formation (DLD1 cells [7]): strongly decreased SrcYF-induced invadopodia formation | ECM degradation (DLD1 cells [8]): strongly reduced the ability of SrcYF-transfected DLD1 cells to degrade the ECM | rescue of ROS generation by over-expression of Nox1, NoxA1 or NoxO1 (Nox1 [9]): only increasing over-expression of Nox1 could rescue ROS generation

Compound: OCCN1CCN(CCCN2c3ccccc3Sc3ccc(Cl)cc32)CC1 [SR-01000000137-4]
Micromolar IC50 HT29 Assay (Nox1 [1]; [13]): Inactive (AID 2808)

Compound: c1ccc2c(c1)[I+]c1ccccc1-2 [DPI, diphenylene iodonium, reference compound]
mitochondrial ROS generation [2]: slightly reduced ROS generation in mitochondria | superoxide formation (Nox2 [10]): dramatically inhibit superoxide formation | superoxide formation (Nox2 [11]): dramatically inhibit superoxide formation | ECM degradation (DLD1 cells [8]): blocked this effect

Compound: c1ccc2c(c1)Nc1ccccc1S2 [SR-01000721844-3]
IC50 (Nox1 [1]; [12]): 370 nM

Compound: CN1CCN(CCCN2c3ccccc3Sc3ccc(C(F)(F)F)cc32)CC1.Cl.Cl [SR-01000003020-6]
Micromolar IC50 HT29 Assay (Nox1 [1]; [13]): Inactive (AID 2808)

Further lines, with some results ahead:

IC50 (Nox1 [1]; [12]): 940 nM
Compound: COc1ccc2c(c1)Sc1ccccc1N2 [SR-01000025134-3]

IC50 (Nox1 [1]; [12]): 920 nM
Compound: CCOC(=O)Nc1ccc2c(c1)Nc1ccccc1S2 [SR-01000477673-3]

IC50 (Nox1 [1]; [12]): 5300 nM
Compound: Cc1ccc(S(=O)(=O)c2ccc3c(c2)Sc2ccc(Cl)cc2N3)cc1 [SR-03000000707-1]

Micromolar IC50 HT29 Assay (Nox1 [1]; [13]): Inactive (AID 2808)
Compound: Cl.Cl.OCCN1CCN(CCCN2c3ccccc3Sc3ccc(C(F)(F)F)cc32)CC1 [SR-01000003048-5, Fluorophenazine, reference compound]

Micromolar IC50 HT29 Assay (Nox1 [1]; [13]): Inactive (AID 2808)
Compound: CN(C)CCCN1c2ccccc2Sc2ccccc21 [SR-01000000228-4, promazine, reference compound]

IC50 (Nox1 [1]; [12]): 360 nM
Compound: CC(O)c1ccc2c(c1)Nc1ccccc1S2 (stereo not drawn) [SR-03000000760-1]

IC50 (Nox1 [1]; [12]): 1400 nM
Compound: O=[N+]([O-])c1ccc2c(c1)Sc1ccc(C(F)(F)F)cc1N2 [SR-03000000695-1]

IC50 (Nox1 [1]; [12]): 250 nM
Compound: Clc1ccc2c(c1)Nc1ccccc1S2 [SR-01000596948-2]

IC50 (Nox1 [1]): > 50000 nM | Micromolar IC50 HT29 Assay (Nox1 [1]; [13]): Inactive (AID 2808)
Compound: CN(C)CCCN1c2ccccc2Sc2ccc(Cl)cc21 [chlorpromazine, reference compound]
invadopodia formation (DLD1 cells [7]): did not observe a decreased ability of DLD1 cells to form cortactin-positive, F-actin-rich invadopodia

IC50 (Nox1 [1]; [12]): 177 nM
Compound: COc1ccc2c(c1)Sc1ccc(Cl)cc1N2 [SR-03000000698-1]
